Several values for one entry are separate records, joined by “and”; a condition that tells them apart may be missing. Identical values can stand only once. Numbers after ± are expanded uncertainties.
Conditions: Liquid, Falling or rolling sphere viscometry

CC(C)CCCCCCCOC(=O)c1ccccc1C(=O)OCCCCCCCC(C)C
Conditions | viscosity
273.15 K, 100 kPa | 625.8 ± 54 mPa·s
273.15 K, 9900 kPa | 845.1 ± 81 mPa·s
298.15 K, 100 kPa | 87.41 ± 2.4 mPa·s and 87.37 ± 2.4 mPa·s
298.15 K, 9600 kPa | 110.7 ± 3.5 mPa·s
298.15 K, 20600 kPa | 145 ± 5.6 mPa·s
298.15 K, 20700 kPa | 145.5 ± 5.7 mPa·s
298.15 K, 30100 kPa | 182.5 ± 8.2 mPa·s
298.15 K, 30300 kPa | 183 ± 8.2 mPa·s
298.15 K, 40700 kPa | 234.2 ± 12 mPa·s
298.15 K, 50200 kPa | 289.4 ± 17 mPa·s
298.15 K, 59200 kPa | 356.2 ± 24 mPa·s
298.15 K, 71600 kPa | 465.4 ± 35 mPa·s
298.15 K, 82000 kPa | 589 ± 49 mPa·s
298.15 K, 83300 kPa | 608.4 ± 51 mPa·s
313.15 K, 100 kPa | 37.71 ± 0.82 mPa·s
313.15 K, 10900 kPa | 47.29 ± 1 mPa·s
313.15 K, 21200 kPa | 58.95 ± 1.2 mPa·s
313.15 K, 30600 kPa | 71.54 ± 1.7 mPa·s
313.15 K, 40900 kPa | 88.99 ± 2.4 mPa·s
313.15 K, 51600 kPa | 109.1 ± 3.5 mPa·s
313.15 K, 62400 kPa | 136.7 ± 5.1 mPa·s
313.15 K, 71300 kPa | 160.8 ± 6.7 mPa·s
313.15 K, 80300 kPa | 192.4 ± 8.9 mPa·s
313.15 K, 89800 kPa | 234.4 ± 12 mPa·s
338.15 K, 100 kPa | 13.37 ± 0.29 mPa·s [middle of 4 runs]
338.15 K, 9700 kPa | 15.54 ± 0.34 mPa·s
338.15 K, 10700 kPa | 16.28 ± 0.35 mPa·s
338.15 K, 19400 kPa | 18.62 ± 0.41 mPa·s
338.15 K, 20500 kPa | 19.38 ± 0.42 mPa·s
338.15 K, 31000 kPa | 23.29 ± 0.51 mPa·s
338.15 K, 31770 kPa | 23.04 ± 0.5 mPa·s
338.15 K, 40100 kPa | 27.24 ± 0.59 mPa·s
338.15 K, 41110 kPa | 26.91 ± 0.59 mPa·s
338.15 K, 50300 kPa | 32.42 ± 0.71 mPa·s
338.15 K, 51100 kPa | 31.86 ± 0.69 mPa·s
338.15 K, 60400 kPa | 38.31 ± 0.83 mPa·s
338.15 K, 60510 kPa | 37.34 ± 0.81 mPa·s
338.15 K, 70700 kPa | 45.25 ± 0.99 mPa·s
338.15 K, 70710 kPa | 43.6 ± 0.95 mPa·s
338.15 K, 80200 kPa | 52.53 ± 1.1 mPa·s
338.15 K, 80970 kPa | 51.73 ± 1.1 mPa·s
348.15 K, 100 kPa | 9.71 ± 0.21 mPa·s
348.15 K, 9800 kPa | 11.47 ± 0.25 mPa·s
348.15 K, 20600 kPa | 13.71 ± 0.3 mPa·s
348.15 K, 30230 kPa | 15.96 ± 0.35 mPa·s
348.15 K, 31300 kPa | 16.34 ± 0.36 mPa·s
348.15 K, 40810 kPa | 18.91 ± 0.41 mPa·s
348.15 K, 50600 kPa | 22.15 ± 0.48 mPa·s
348.15 K, 50710 kPa | 22.05 ± 0.48 mPa·s
348.15 K, 61220 kPa | 25.89 ± 0.56 mPa·s
348.15 K, 69800 kPa | 29.77 ± 0.65 mPa·s
348.15 K, 72330 kPa | 30.55 ± 0.66 mPa·s
348.15 K, 85770 kPa | 37.23 ± 0.81 mPa·s

From the NIST ThermoML archive (doi:10.1021/je900284z)
